Reference: patent US20050113371A1, “Antifungal agent for topical use” (priority 2002, published 2005)
Where two headings read alike, the source gives them in different places.

Legend:
[1] = tested on: Trichophyton mentagrophytes; test: Antifungal activity on Sabouraud agar medium, MIC and FIC index (Test Examples 1 and 2); assay type: cell-based; conditions: for MIC: Trichophyton mentagrophytes, 168 h, read-out: Minimum inhibitory concentration (MIC); for FIC index obtained by the combination of amorolfine hydrochloride with another medicine: Test Example 1, amorolfine hydrochloride + medicine at mass ratio 1:1
Description: (§1) Amorolfine hydrochloride and each specimen (hereinafter referred to as “medicine”) at a mass ratio of 1:1 were dissolved in dimethyl sulfoxide (DMSO). Two-fold dilution series were prepared with DMSO. In the determination of the antifungal activity, the medicine and the medium were mixed together at a ratio of 1:99.
(§2) Sabouraud agar medium (Eiken) was used as a susceptibility determination medium. A microbe suspension containing 10^6 spores/mL of Candida albicans or about 10^6 conidia/mL of ringworm fungus was prepared. 5 μl of the suspension was inoculated on the Sabouraud agar medium containing the medicine with a micro-planter (a product of Sakuma Seisakusho). Candida albicans was cultured for 2 days and the tinea was cultured for 7 days. […]

Trichophyton rubrum = test: as above; assay type: cell-based; conditions: for MIC: Trichophyton rubrum, 168 h, read-out: Minimum inhibitory concentration (MIC); for FIC index obtained by the combination of amorolfine hydrochloride with another medicine: Test Example 1, amorolfine hydrochloride + medicine at mass ratio 1:1
Description: as §1, §2

Candida albicans = test: as above; assay type: cell-based; conditions: for MIC: Candida albicans, 48 h, read-out: Minimum inhibitory concentration (MIC); for FIC index obtained by the combination of amorolfine hydrochloride with another medicine: Test Example 1, amorolfine hydrochloride + medicine at mass ratio 1:1
Description: as §1
(§3) Sabouraud agar medium (Eiken) was used as a susceptibility determination medium. A microbe suspension containing 10^6 spores/mL of Candida albicans or about 10^6 conidia/mL of ringworm fungus was prepared. 5 μl of the suspension was inoculated on the Sabouraud agar medium containing the medicine with a micro-planter (a product of Sakuma Seisakusho). Candida albicans was cultured for 2 days and the tinea was cultured for 7 days.
The effect obtained by the combination was judged on the basis of the following standards (FIC index): • >2: antagonism • 2>and 1<: additive action • 1>: potentiation
(1) Amorolfine hydrochloride and each specimen (hereinafter referred to as “medicine”) at a mass ratio of 100:1 to 1:100 were dissolved in dimethyl sulfoxide (DMSO). Two-fold dilution series were prepared with DMSO. In the determination of the antifungal activity, the medicine and the medium were mixed together at a ratio of 1:99.
(2) Amorolfine hydrochloride and each specimen (hereinafter referred to as “medicine”) at a mass ratio of 1:3 to 3:1 were dissolved in dimethyl sulfoxide (DMSO). Two-fold dilution series were prepared with DMSO. In the determination of the antifungal activity, the medicine and the medium were mixed together at a ratio of 1:99.
as §3, with “conidia/mL of each of two kinds of ringworm fungus” for “conidia/mL of ringworm fungus”, “agar medium with a” for “agar medium containing the medicine with a”, “and the Tinea fungus was cultured” for “and the tinea was cultured”

[2] = tested on: Trichophyton mentagrophytes TIMM 1189; test: Tinea infection model of guinea pigs, culture test (Test Example 3); assay type: in vivo; conditions: 0.75 mass % in polyethylene glycol 400 (combination 1:2), 0.1 mL once a day for 5 days from 3 days after inoculation; culture on 5th day after last application; 10 loci
Description: Amorolfine hydrochloride and each specimen (hereinafter referred to as “medicine”) at a mass ratio of 1:2 were dissolved in polyethylene glycol 400 to obtain a final concentration of 0.75% mass ratio. Each of amorolfine hydrochloride and the medicines was separately dissolved in polyethylene glycol 400 to obtain solutions having the final concentration of 0.75 mass %.
Male Hartley guinea pigs (Japan SLC Co., Ltd.; 6 weeks) were used. In the course of the test, they were kept separately from one another in an isolator (Negative rack, CLEA JAPAN, Inc.). They could freely have a solid food (G standard, Nihon Nosan Kogyo KK) and water.
Trichophyton mentagrophytes TIMM 1189 was cultured on slant Sabouraud glucose agar medium at 27° C. for 14 days. Then, sterilized saline containing 0.05% of Tween 80 was added thereto to obtain conidia. The resultant suspension was filtered through a cell strainer (FALCON Co., Ltd.) to remove large mycelian masses. The number of conidia was counted with hemocytometer. The conidia were diluted to 4×10^7/mL with sterilized saline containing 0.05% of Tween 80 to obtain the conidial suspension for inoculation.
The back of each guinea pig was shaved. Then, a circular inoculation part having a diameter of 2 cm was positioned on both sides of the spinal column. A gummed tape was applied thereto and then peeled. These steps was repeated three times, whereby the hair was pulled out of the skin in both parts and, at the same time, the top of the corneous layer of the skin was peeled off. The remaining hair was completely removed with tweezers. […]
When at least one of the 10 small pieces taken from one inoculated locus of the skin was the positive after the culture, the inoculated locus was judged to be positive. The ratio of positive loci after culture was calculated from the number of the cultured positive pieces in the total 10 inoculated loci in each experiment group.
The number of the cultured positive small pieces in the inoculated portion was scored as will be described below to determine the infection. […]

[3] = cited from earlier work
[4] = cited from earlier work; remark: listed apart in the source
[5] = rats, oral; administration from before the pregnancy to the lactation period or perinatal period/lactation period; cited from earlier work
[6] = cited from earlier work; remark: listed apart in the source
[7] = in vivo; cited from earlier work
[8] = rabbit, in vivo; cited from earlier work
Candida = conditions: cited from earlier work
[9] = Test Example 2, geometric mean MIC of two strains, cultured 7 days

Question: For CCC(C)(C)c1ccc(CC(C)CN2CC(C)OC(C)C2)cc1.Cl (racemic) [amorolfine hydrochloride, (±)-cis-2,6-dimethyl-4-[3-[4-(1,1-dimethylpropyl)phenyl]-2-methylpropyl]-morpholine monohydrochloride], which MIC [1] is on record?
Answer: 0.031 µg/mL

Question: What about the MIC (Trichophyton rubrum) of the same compound?
Answer: 0.016 µg/mL

Question: What about the MIC (Candida albicans) of the same compound?
Answer: 1 µg/mL

Question: What about the “rate of positive loci after culture” value [2] of the same compound?
Answer: 100%

Question: What about the LD50 ([3]; rats, intraperitoneal injection, female) of the same compound?
Answer: 465 mg/kg

Question: And the LD50 ([3]; rats, intraperitoneal injection, male)?
Answer: 468 mg/kg

Question: And the LD50 ([3]; rats, oral, female)?
Answer: 1756 mg/kg

Question: And the LD50 ([3]; rats, oral, male)?
Answer: 1960 mg/kg

Question: What about the LD50 ([3]; rats, subcutaneous, male and female) of the same compound?
Answer: > 2000 mg/kg

Question: And the LD50 ([4]; mice, intraperitoneal injection, female)?
Answer: 239 mg/kg

Question: And the LD50 ([4]; mice, intraperitoneal injection, male)?
Answer: 205 mg/kg

Question: What about the LD50 ([4]; mice, intravenous injection, female) of the same compound?
Answer: 112 mg/kg

Question: And the LD50 ([4]; mice, intravenous injection, male)?
Answer: 141 mg/kg

Question: And the LD50 ([4]; mice, oral, female)?
Answer: 2406 mg/kg

Question: What about the LD50 ([4]; mice, oral, male) of the same compound?
Answer: 2514 mg/kg

Question: What about the LD50 ([4]; mice, subcutaneous, male and female) of the same compound?
Answer: > 5000 mg/kg

Question: And the “dose with an influence on the survival rate of newborn babies” value [5]?
Answer: at least 10 mg/kg/day

Question: What about the LD50 ([6]; dogs, oral, male and female) of the same compound?
Answer: > 1000 mg/kg

Question: What about the LD50 ([6]; dogs, subcutaneous, male) of the same compound?
Answer: > 2500 mg/kg

Question: What does the source list for Cc1cc(C2CCCCC2)n(O)c(=O)c1.NCCO [Ciclopyrox olamine]?
Answer: FIC index obtained by the combination of amorolfine hydrochloride with another medicine ([1]; cultured 7 days): 1.0; FIC index obtained by the combination of amorolfine hydrochloride with another medicine (Trichophyton rubrum; cultured 7 days): 1.0; FIC index obtained by the combination of amorolfine hydrochloride with another medicine (Candida albicans; cultured 2 days): 0.38

Question: Which “FIC index obtained by the combination of amorolfine hydrochloride with another medicine” value (“FIC index obtained by the combination” for short) ([1]; cultured 7 days) does the source give for N#C/C(=C1/SCC(c2ccccc2Cl)S1)n1ccnc1 (centres unmarked) [Lanoconazole] here?
Answer: 1.00

Question: And the “FIC index obtained by the combination” value (Trichophyton rubrum; cultured 7 days)?
Answer: 1.25

Question: And the “FIC index obtained by the combination” value (Candida albicans; cultured 2 days)?
Answer: 0.53

Question: With Cc1cccc(N(C)C(=S)Oc2ccc3ccccc3c2)c1 [Tolnaftate] as the compound, how does the “FIC index obtained by the combination” value ([1]; cultured 7 days) read?
Answer: 1.25

Question: And the “FIC index obtained by the combination” value (Trichophyton rubrum; cultured 7 days)?
Answer: 0.35

Question: What about the “FIC index obtained by the combination” value (Candida albicans; cultured 2 days) of the same compound?
Answer: 0.38

Question: Which results are given for CN(Cc1ccc(C(C)(C)C)cc1)Cc1cccc2ccccc12.Cl [butenafine hydrochloride, N-4-tert-butylbenzyl-N-methyl-1-naphthalenemethylamine hydrochloride]?
Answer: FIC index obtained by the combination of amorolfine hydrochloride with another medicine ([1]; cultured 7 days): 0.49; MIC [1, 9]: 0.016 µg/mL; FIC index obtained by the combination of amorolfine hydrochloride with another medicine (Trichophyton rubrum; cultured 7 days): 0.38; MIC (Trichophyton rubrum; [9]): 0.004 µg/mL; MIC (Candida albicans; Test Example 2, geometric mean MIC of two strains, cultured 2 days): > 8 µg/mL; FIC index obtained by the combination of amorolfine hydrochloride with another medicine (Candida albicans; cultured 2 days): 0.38; Minimum inhibitory concentration (MIC) (Candida albicans; Test Example 2, geometric mean MIC of two strains, cultured 2 days, listed as B, hydrochloride): >8.0 µg/mL; rate of positive loci after culture [2]: 100%; LD50 ([3]; Wistar rats, intravenous injection, female): ≥ 100 mg/kg; LD50 ([3]; Wistar rats, intravenous injection, male): > 100 mg/kg; LD50 ([3]; Wistar rats, oral, male and female): > 4000 mg/kg; LD50 ([3]; Wistar rats, percutaneous, male and female): > 1000 mg/kg; LD50 ([3]; Wistar rats, subcutaneous, male and female): > 150 mg/kg; toxicity on the reproduction or development [7]: No toxicity was found; LD50 ([4]; ICR male and female mice, intravenous injection): > 140 mg/kg; LD50 ([4]; ICR male and female mice, oral): > 5000 mg/kg; LD50 ([4]; ICR male and female mice, percutaneous): > 800 mg/kg; LD50 ([4]; ICR male and female mice, subcutaneous): > 200 mg/kg; LD50 ([6]; Beagle dogs, male, oral): > 5000 mg/kg; LD50 ([6]; Beagle dogs, male, percutaneous): > 100 mg/kg; localized irritation [8]: weak; antifungal effect on Candida (Candida): ineffective
